The record followed here is patent US4374136A, “Pyrimidine derivatives” (May & Baker Limited, priority 1980, dated 1983).

Broadly, the LD50 is the dose expected to kill half of the subjects tested.

Each structure is given as a SMILES string. Read-outs that look alike come from different tables or passages of the source. Some results are limits rather than exact numbers.

The subject of series [1] is Plasmodium berghei (strain N30). The series is described as follows: Antimalarial activity in mice, Plasmodium berghei strain N30, oral daily for 4 days. It is filed as in vivo. The conditions noted are these: for Number of mice cured: 24 mice tested; for ED50: Plasmodium berghei, 504 h, read-out: CD50 (dose required to cure 50% of mice tested). As for the experimental part: (§1) (a) The test compounds were tested in mice, against Plasmodium yoelii nigeriensis (strain N67), which is sensitive to pyrimethamine, and against a strain of Plasmodium yoelii nigeriensis [strain PR (derived from strain N67)] which is resistant to pyrimethamine, and also against pyrimethamine sensitive Plasmodium berghei (strain N30).
(§2) In the experiments, the mice were each infected intraperitoneally with about 10^6 trophozoites. The test compound was administered orally daily for 4 days, beginning on the day of infection, and peripheral blood smears of the mice were observed 2 or 3 times per week for a total of 21 days. The numbers of mice cured were counted and the dose required to cure 50% of mice tested (CD50) was calculated.

The test system of series [2] is Plasmodium yoelii nigeriensis (strain N67). Briefly: Single oral dose antimalarial test in mice infected with strain N67. It is filed as in vivo, Plasmodium yoelii nigeriensis; mice. The conditions noted are these: for ED50: Plasmodium yoelii. As to the method:
(b) Mice were each infected intraperitoneally with about 10^6 trophozoites of strain N67 of Plasmodium yoelii nigeriensis. […] The numbers of mice cured were counted and the dose required to cure 50% of mice tested (CD50) was calculated.
The results obtained are shown below in Table II, in comparison with a test using pyrimethamine against the same organism.

In series [3] the test system is Plasmodium yoelii nigeriensis (strain PR). Briefly: Antimalarial activity in mice, pyrimethamine-resistant Plasmodium yoelii nigeriensis strain PR, oral daily for 4 days. It counts as in vivo. The note with it: for Number of mice cured: PR; for ED50: Plasmodium yoelii, 504 h, strain PR, oral daily for 4 days from day of infection, 21 days observation, read-out: CD50 (dose required to cure 50% of mice tested). As to the method:
as §1, §2

Series [4] concerns malaria. The series is described as follows: Comparative activity against malaria (general statement). It counts as in vivo. The text has this:
The properties of the compound of formula III are illustrated by the following laboratory tests.

The subject of series [5] is dogs. The series is described as follows: Toxicity in dogs, oral. It is filed as in vivo.
Series [6] deals with mice. Briefly: Acute oral toxicity in mice. It counts as in vivo. The note with it: 5 mice tested. As to the method: (§3) Mice were treated with a single dose of the compound of formula III by the oral route, and were observed until all survivors had appeared to be healthy for 3 consecutive days. The LD50 dose (dose required to kill 50% of the mice tested) was then calculated.
(§4) In a similar test on reference compound RCA an oral dose of 1000 mg/kg killed 2 out of 5 mice, giving an LD50 figure of […].

Series [7] can be described thus: Acute oral toxicity in mice. It is filed as in vivo. The conditions noted are these: mouse, in vivo; single oral dose, mice; read-out: LD50 (dose required to kill 50% of the mice tested). As to the method:
as §3, §4

Series [8] has as its system Plasmodium yoelii nigeriensis (strain N67). Briefly: Antimalarial activity in mice, Plasmodium yoelii nigeriensis strain N67, oral daily for 4 days. It is filed as in vivo. The conditions noted are these: for ED50: Plasmodium yoelii, 504 h, read-out: CD50 (dose required to cure 50% of mice tested). As to the method: as §1, §2
[9] abbreviates: 504 h, one single oral dose 48 hours after infection, strain N67, read-out: CD50 (dose required to cure 50% of mice tested).

Consider `Cc1nc(N)nc(N)c1OCCCOc1ccc(-c2ccc(Cl)cc2)cc1` [compound of formula III, 2,4-diamino-5-[3-{4-(4-chlorophenyl)phenoxy}propoxy]-6-methylpyrimidine], for which the “Number of mice cured” value is reported as 0 mice in series [1] (N30, daily dose 0.125 mg/kg); 14 mice in series [1] (N30, daily dose 0.5 mg/kg); 24 mice in series [1] (N30, daily dose 2.0 mg/kg); 0 mice in series [2] (single dose 0.2 mg/kg, 48 hours after infection, 8 mice tested); 1 mice in series [2] (single dose 2.0 mg/kg, 48 hours after infection, 8 mice tested); 8 mice in series [2] (single dose 20.0 mg/kg, 48 hours after infection, 8 mice tested). In addition, the “Number of mice cured” value was 0 mice in series [3] (daily dose 0.2 mg/kg, 16 mice tested); 3 mice in series [3] (daily dose 2.0 mg/kg, 16 mice tested); 15 mice in series [3] (daily dose 20.0 mg/kg, 15 mice tested); 2 mice in series [8] (N67, daily dose 0.125 mg/kg, 32 mice tested); 28 mice in series [8] (N67, daily dose 0.5 mg/kg, 32 mice tested); 31 mice in series [8] (N67, daily dose 2.0 mg/kg, 31 mice tested). Further, the ED50 in series [1] (strain N30, oral daily for 4 days from day of infection, 21 days observation) worked out at 0.45 mg/kg; in series [2] (setting [9]) it was 3.5 mg/kg; in series [3], 3 mg/kg; in series [8] (strain N67, oral daily for 4 days from day of infection, 21 days observation), 0.3 mg/kg. In addition, in series [4] (sensitive and resistant strains of malaria, versus reference compound RCA), the “Antimalarial activity in comparison” value is on record as “very much more active than reference compound RCA”. Further, the “Number of dogs in which clinically well-tolerated” value in series [5] (15 mg/kg/day (highest dosage), 6 dogs) is 5 dogs. For the same compound, the “Clinical tolerance in dogs” value in series [5] (oral gelatin capsules, one month, 1, 3 and 9 mg/kg/day) is recorded as “clinically well-tolerated”. For the same compound, in series [5] (versus reference compound RCA), the “Toxicity in dogs in comparison” value is listed as “much less toxic in dogs than reference compound RCA”. Further, the “Number of mice killed” value worked out at 0 mice in series [6] (500 mg/kg oral) and 3 mice in series [6] (1000 mg/kg oral). In addition, in series [7], the LD50 is roughly 1000 mg/kg.
In the case of `CCc1nc(N)nc(N)c1-c1ccc(Cl)cc1` [pyrimethamine, 2,4-diamino-5-(4-chlorophenyl)-6-ethylpyrimidine], the ED50 in series [2] (setting [9]) is greater than 50 mg/kg. For the same compound, the “Number of mice cured” value was determined as 0 mice in series [2] (dose 5.0 mg/kg, 8 mice tested) and 0 mice in series [2] (dose 50.0 mg/kg (maximum tolerated dose), 8 mice tested).
With `Cc1nc(N)nc(N)c1OCCCOc1ccc(Cl)cc1C1CCCCC1` [reference compound RCA, 2,4-diamino-6-methyl-5-[3-(4-chloro-2-cyclohexylphenoxy)propoxy]pyrimidine, reference compound], the “Number of mice cured” value is listed as 0 mice in series [1] (N30, daily dose 1 mg/kg); 5 mice in series [1] (N30, daily dose 10 mg/kg); 24 mice in series [1] (N30, daily dose 100 mg/kg); 2 mice in series [2] (oral dose 200 mg/kg, 24 hours after infection, 8 mice); 0 mice in series [3] (daily dose 10 mg/kg, 32 mice tested); 32 mice in series [3] (daily dose 100 mg/kg, 32 mice tested). Also, the “Number of mice cured” value stood at 2 mice in series [8] (N67, daily dose 1 mg/kg, 32 mice tested); 17 mice in series [8] (N67, daily dose 5 mg/kg, 32 mice tested); 31 mice in series [8] (N67, daily dose 25 mg/kg, 31 mice tested). For the same compound, the ED50 in series [1] (po) was 15 mg/kg; in series [2] (po, 24 h, read-out: CD50), greater than 200 mg/kg; in series [3], 30 mg/kg; in series [8] (po), 5 mg/kg. Besides, the “Activity against malaria relative to any of the other 34 compounds of B.P. 1546937 tested” value in series [4] (fold as active) is given as “at least 4 times”. Moreover, the Deaths in dogs result in series [5] (doses higher than 3 mg/kg/day) is “deaths occurring at higher doses”. In addition, the “Clinical tolerance in dogs” value in series [5] (even at doses of 3 mg/kg/day) was “clinically badly tolerated”. Also, the “Number of mice killed” value in series [6] (1000 mg/kg oral) amounted to 2 mice. Besides, the LD50 in series [7] is roughly 1000 mg/kg.
